Data as given in patent publication US12097200B2, “Combination of BI853520 with chemotherapeutic drugs” (INXMED (NANJING) CO., LTD., priority 2020, dated 2024).
Several values for one entry are separate records, joined by “and”; a condition that tells them apart may be missing. Identical values can stand only once. Entries after “also recorded” stand apart in the source; their conditions may differ.

Assays:
NCI-H520 cells = conditions: NCI-H520 xenograft, day 22, combination of both
Experimental: Mice were approximately 6 weeks old. There were 5 mice in each group.
The cell concentration of the culture was maintained between 8×10^6 to 12×10^7 cells/tissue culture flask.
Cisplatin was dissolved in 0.9% saline.
Statistical evaluation was performed using the Student's t-test function in Microsoft Excel, utilizing a two-tailed distribution and a two-sample equal variance type.

KYSE-270 cells = assay: Antitumor activity in mouse xenograft model of human esophageal cancer (KYSE-270); format: in vivo; conditions: KYSE-270 xenograft
Source text: (§1) For tumor volume, absolute values were used.
(§2) Appropriate statistical methods were used for evaluation.
Mice were approximately 8-10 weeks old.
KYSE-270 was a cell line for esophageal cancer (Public Health England, Cat. No. 94072021).

KYSE-70 cells = assay: Antitumor activity in mouse xenograft model of human esophageal cancer (KYSE-70); format: in vivo; conditions: KYSE-70 xenograft, combination of both
[1] = test system: GXA 3039 gastric cancer PDX model
Experimental: Mice were housed in individual ventilated cages ([sequence] Sealsafe™-IVC-System, [sequence], Hohenpeissenberg, Germany), and type II or III cages were selected according to the number of experimental animals. The cages were under the conditions: 14L:10D light-dark cycle, air exchange (AC) rate of 60-65 AC/hr in the cage, 25±1° C. and 40-70% humidity. […] Water and diet were changed twice a week, and all materials were autoclaved before use.
Tumor fragments were implanted subcutaneously into the flank of female pre-study mice. […] Animals that were not randomized were euthanized. The date of randomization was designated as day 0 of the test, and dosing began on day 1. […] If less than 70% of the original number of mice survived (i.e. less than 6 out of 8), the entire group was terminated. […] Tolerability was assessed using the group with the largest median body weight loss (BWL) among groups.
Inhibition of tumor growth was determined by calculating TGI.
Additional endpoints used to assess efficacy included: time to tumor volume doubling/quadrupling and tumor growth delay/time to tumor progression/tumor repopulation.
Time to tumor volume doubling/quadrupling: The time to tumor volume doubling/quadrupling (Td/Tq) for the test and control groups was defined as the time interval (in days) required for each group to reach 200%/400% of the median RTV. The relative volume of a single tumor on day X (RTVx [%]) was obtained by dividing the absolute volume of the tumor on day X (Tx) by the absolute volume of the tumor on day 0 (T0) and then multiplying it by 100, as follows:
Tumor growth delay/time to tumor progression/tumor repopulation: To assess the difference in time to tumor progression/tumor repopulation after tumor regression during the no-dose observation period (tumor growth delay, TGD), Kaplan-Meier survival analysis was used. A relative tumor volume of 400% was defined as the endpoint.
The control group for oral administration was 0.5% Natrosol. The control group for intravenous administration was 0.9% saline. Each dose was 10 ml/kg.
Data were used for statistical analysis at the end of the study. The one-tailed nonparametric Mann-Whitney-Wilcoxon U test was used with the significance level a set at 0.05. The p-values obtained from the U-test were adjusted using the Bonferroni-Holm correction.
To assess the statistical significance of differences in time to tumor progression/tumor growth delay (TGD) using 400% of RTV as the trial endpoint, the Kaplan-Meier survival mode statistic was used in conjunction with the log-rank Mantel-Cox test for pairwise comparisons.
Additionally, to assess tolerance to treatment, a two-tailed nonparametric Mann-Whitney-Wilcoxon U test was performed using body weights determined at the end of the dosing period (i.e., on the day TGI values were calculated).
By convention, p-values≤0.05 represented significant tumor inhibition or weight loss.

HS 746T cells = assay: Antitumor activity in mouse xenograft model of human gastric cancer (HS 746T); format: in vivo; conditions: HS 746T xenograft, combination of both
Source text: as §1, §2
HS 746T: Approximately 6 week old mice.

[2] = BI 853520 50 mg/kg qd, cisplatin 5 mg/kg IP q7d
[3] = BI 853520 50 mg/kg qd, paclitaxel 10 mg/kg q7d, combination of both
[4] = BI 853520 50 mg/kg qd, docetaxel 10 mg/kg q7d

N.N.[Cl][Pt][Cl] [Cisplatin, reference compound]
Median tumor volume (NCI-H520 cells; BI 853520 50 mg/kg qd by gavage, cisplatin 5 mg/kg IP once a week): 228 mm^3
Median TGI (NCI-H520 cells; [2]): 74%
Tumor regression (animals with regression/animals in group) (NCI-H520 cells; [2]): 0/7

CC(=O)O[C@H]1C(=O)[C@@]2(C)[C@H]([C@H](OC(=O)c3ccccc3)[C@]3(O)C[C@H](OC(=O)[C@H](O)[C@@H](NC(=O)c4ccccc4)c4ccccc4)C(C)=C1C3(C)C)[C@]1(OC(C)=O)CO[C@@H]1C[C@@H]2O [Paclitaxel]
Median tumor volume (KYSE-270 cells; day 13, BI 853520 50 mg/kg qd by gavage, paclitaxel 10 mg/kg q7d i.v., combination of both): 1033 mm^3
TGI (KYSE-270 cells; day 13, BI 853520 50 mg/kg qd, paclitaxel 10 mg/kg q7d, combination of both): 2%
Antitumor effect (in words) (KYSE-270 cells; [3]): no effect on tumor growth; also recorded: had no effect
Change in median body weight (KYSE-270 cells; [3]): −9.7%
Tumor regression (animals with regression/animals in group) (KYSE-270 cells; [3]): no tumor regression and 0/7
Animal body weight decreased by (KYSE-270 cells; paclitaxel 10 mg/kg q7d, value is a decrease): 9.7%

CC(=O)O[C@@]12CO[C@@H]1C[C@H](O)[C@@]1(C)C(=O)[C@H](O)C3=C(C)[C@@H](OC(=O)[C@H](O)[C@@H](NC(=O)OC(C)(C)C)c4ccccc4)C[C@@](O)([C@@H](OC(=O)c4ccccc4)[C@H]21)C3(C)C [Docetaxel, reference compound]
Median tumor volume (KYSE-70 cells; day 42, BI 853520 50 mg/kg qd by gavage, docetaxel 10 mg/kg q7d i.v.): 73 mm^3
Antitumor effect (in words) (KYSE-70 cells; [4]): had inhibitory effect
Change in median body weight (KYSE-70 cells; [4]): 5.6%
TGI (KYSE-70 cells; [4]): 100%
Td (time to tumor volume doubling) ([1]; GXA 3039 PDX, time to 200% of median RTV, doses as Table 8): 8.5 days
Tq (time to tumor volume quadrupling) ([1]; GXA 3039 PDX, time to 400% of median RTV, nr = not reached until end of test, doses as Table 8): 108.0 days
TGI [%] (d) ([1]; GXA 3039 gastric cancer PDX, day 36, BI 853520 50 mg/kg/d PO days 1-35, docetaxel 10 mg/kg IV days 1, 8, 15, 22, 29, combination of both): 113% and 113(36) %
Survival rate ([1]; female, BomTac:NMRI-Foxn1nu, mouse, in vivo): 2/8
Median BWL maximum ([1]; mouse, in vivo): 2.1%
Median BWL maximum, day ([1]; mouse, in vivo): 2 days
Median tumor volume (HS 746T cells; day 24 (withdrawal on day 28), BI 853520 50 mg/kg qd by gavage, docetaxel 10 mg/kg q7d i.v.): 0 mm^3
Antitumor effect (in words) (HS 746T cells; [4]): had inhibitory effect
Change in median body weight (HS 746T cells; [4]): 6.7%
TGI (HS 746T cells; [4]): 108%
